Results published in patent US4442031A, “Immunopotentiating peptides” (Hoffmann-La Roche Inc., priority 1983, dated 1984).
Where no end group is shown, it is not given here.

Columns and labels:
Type in all cases: in vivo
[1] = tested on: Candida albicans ATCC 10231; assay: Protective activity against Candida albicans infection in 5-FU immunosuppressed mice; settings: for Survivors Day 8 / Survivors Day 15: ddY mice
Procedure: In a series of examples, the compounds of formula I were tested for protective activity against opportunistic infections in immunosuppressed mice. Female ddY mice (6 weeks old) weighing about 26 g were pretreated daily for ten days with 5-fluorouracil (5-FU) (25 mg/kg/day, i.p.) and with thymosin α1 or with compounds of formula I (i.p.) at varying dosages. The mice were then infected with Candida albicans ATCC 10231 (1×10^5 cells or more) at 24 hour after the last treatment. One control group was administered 5-FU and saline solution and a second control group received neither 5-FU nor compound of formula I prior to infection with Candida albicans. The number of animals surviving eight days after infection with Candida albicans and 15 days after infection with Candida albicans is presented in the table below.
(§1) Normal mice (female ddY mice, 6 weeks old) were highly tolerant to infection with Candida albicans ATCC 10231 at relatively low dose (1-2×10^5 cells, iv.). However, when pretreated daily for ten times with 5-FU (25 mg/kg/day, ip.), the mice were susceptible to infection as shown in Table 6. […] Compound A was also shown to be active against infection with Pseudomonas aeruginosa 5E81-1 and Listeria monocytogenes EGD in the immunosuppressed mice (see Tables 7 and 8).

[2] = tested on: delayed-type hypersensitivity (DTH); assay: Restoration of delayed-type hypersensitivity (DTH) decreased by 5-FU in BDF1 mice; settings: for DTH response %: % of control
Procedure: A poor prognosis is often observed in cancer patients with impaired immune response. Impaired immune response can be caused by the cancer itself, by chemotherapeutic agents, or by radiotherapy. Thus, therapeutic agents which restore impaired immune response in cancer patients are expected to play an important role in combination therapy. The restoration activity of the compounds of the invention on impaired cell-mediated immunity was determined by measuring the enhancement of delayed-type hypersensitivity (DTH), which was decreased to a great extent in mice treated with 5-fluorouracil (5-FU).
Female BDF1 mice (20-22 g, 11-12 weeks old) received (i.p. or p.o.) the compound to be tested on consecutive days one day before, concurrently with and 1 and 2 days after the 5-FU treatment. For DTH measurement, 10^8 chicken red blood cells (CRBC) were injected i.p. (or s.c. into the left hind footpad) and challenged s.c. into the right hind footpad at 3 and 7 days after the 5-FU treatment, respectively. Restoration activity was calculated by the following formula from the DTH response observed in the control group, 5-FU treated group treatment and the Test group treated both with 5-FU and the compound of the invention. Restoration activity was calculated by the formula: [formula]

[3] = tested on: Pseudomonas aeruginosa 5E81-1; assay: Protection against Pseudomonas aeruginosa infection in 5-FU immunosuppressed mice; settings: Table 7, i.p., 5-FU immunosuppressed mice, control 0/30
Procedure: as §1

[4] = tested on: Listeria monocytogenes EGD; assay: Growth of Listeria monocytogenes in liver of P388 tumor-bearing mice; settings: Tumor-bearing CDF1 mice, i.p., seven times before infection, 3 days after infection, control 7.1
From the text: The immunocompetence of tumor-bearing mice is known to be frequently deficient. This is illustrated by the fact that Listeria monocytogenes EGD grew considerably in tumor-bearing mice as compared to normal mice (see Table 9). Male CDF1 mice (6 weeks old) transplanted with P388 leukemia (3×10^5 cells, footpad) were infected with Listeria monocytogenes (2×10^3 cells, iv.) 7 days after the transplant. Three days thereafter the number of the bacteria grown in liver was counted.

[5] = tested on: P388 leukemia; assay: Protective activity against P388 leukemia growth in 5-FU immunosuppressed mice; settings: for Mean Survival days (days ± S.D.): CDF1 mice, 5-FU +, P388 +, 5-FU + saline 4.1
Procedure: The treatment with cytostatic agents often decreases immunocompetence and consequently increases incidence of metastasis of tumor in cancer patients. […] In the experiment shown in Table 10, male CDF1 mice (6 week old) were treated daily for 8 times with or without 5-FU (28 mg/kg/day ip.) and then transplanted subcutaneously with P388 leukemic cells (3×10^5) into footpad 24 hours later. When pretreated with 5-FU, mice died very quickly at 4 days, while normal mice survived about 23 days after the transplant. […] Thymosin α1 and compound A may improve the immunodefense system against metastatic tumor growth in cancer patients who are receiving immunosuppressive chemotherapy. In combination with thymosin α1 or compound A, more extensive cancer chemotherapy for a longer duration may be possible.
^(1) CDF1 mice were pretreated daily for 8 times from Day 8 to
with 5FU (28 mg/kg/day, ip.).
^(2) Thymosin α1 or Compound A were administered daily for
14 times from Day 8 to 5 by ip. route.
^(3) P388 leukemic cells (3 × 10^5) were inoculated into
^(4) Survival days after the inoculation of the leukemic cells.

[6] = Example 8, 40.0 μg/kg i.p. daily for ten days with 5-FU
[7] = Example 10, 0.4 μg/kg i.p. daily for ten days with 5-FU
[8] = Example 10, 4.0 μg/kg i.p. daily for ten days with 5-FU
[9] = Example 10, 40.0 μg/kg i.p. daily for ten days with 5-FU
[10] = Example 11, 4.0 μg/kg i.p. daily for ten days with 5-FU
[11] = Example 11, 40.0 μg/kg i.p. daily for ten days with 5-FU
[12] = Example 11, 400.0 μg/kg i.p. daily for ten days with 5-FU
[13] = Table 2, 5-FU plus 0.5 μg/kg/day, i.p.
[14] = Table 2, 5-FU plus 5.0 μg/kg/day, i.p.
[15] = Table 3, first experiment, 5-FU plus 5.0 μg/kg/day, i.p.
[16] = Table 4, 5-FU plus 5.0 μg/kg/day i.p.

Q: “thymosin α1 (SDAAVDTSSEITTKDLKEKKEVVEEAEN; ends and bridges not checked; UniProt P01252 2-29, looked up) [peptide isolated from bovine thymus, stimulates maturation, differentiation and function of T cells; U.S. Pat. No. 4,079,127, reference compound]” was tested. Which “Survivors Day 8” value [1, 6] did it give?
A: 5/7

Q: And the “Survivors Day 15” value [1, 6]?
A: 5/7

Q: What about the “Survivors Day 8” value ([1]; Example 9, 40.0 μg/kg i.p. daily for ten days with 5-FU) of the same substance?
A: 4/7

Q: What about the “Survivors Day 8” value [1, 7] of the same substance?
A: 3/10

Q: And the “Survivors Day 15” value [1, 7]?
A: 3/10

Q: And the “Survivors Day 8” value [1, 8]?
A: 6/10

Q: What about the “Survivors Day 15” value [1, 8] of the same substance?
A: 5/10

Q: And the “Survivors Day 8” value [1, 9]?
A: 9/10

Q: And the “Survivors Day 15” value [1, 9]?
A: 8/10

Q: And the “Survivors Day 8” value [1, 10]?
A: 3/10

Q: What about the “Survivors Day 15” value [1, 10] of the same substance?
A: 3/10

Q: And the “Survivors Day 8” value [1, 11]?
A: 6/10

Q: What about the “Survivors Day 15” value [1, 11] of the same substance?
A: 5/10

Q: And the “Survivors Day 8” value [1, 12]?
A: 8/10

Q: And the “Survivors Day 15” value [1, 12]?
A: 8/10

Q: What about the “Survivors at Day 8 after infection” value ([1]; Table 6, 40 μg/kg/day, i.p., ten times with 5-FU, control 1/7) of the same substance?
A: 4/7

Q: What about the “Restoration Activity(%)” value [2, 13] of the same substance?
A: 1.3%

Q: What about the DTH response % [2, 13] of the same substance?
A: 56.0%

Q: And the “DTH response av. ± S.E. (0.1 mm)” value ([2]; Table 2, 5-FU plus 0.5 μg/kg/day, i.p., control 10.3, 5-FU alone 5.7)?
A: 5.8 ± 1.1 0.1 mm

Q: And the “Restoration Activity(%)” value [2, 14]?
A: 50.3%

Q: What about the DTH response % [2, 14] of the same substance?
A: 77.8%

Q: What about the “DTH response av. ± S.E. (0.1 mm)” value ([2]; Table 2, 5-FU plus 5.0 μg/kg/day, i.p., control 10.3, 5-FU alone 5.7) of the same substance?
A: 8.0 ± 1.2 0.1 mm

Q: What about the “DTH response av. ± S.E. (0.1 mm)” value ([2]; Table 3, first experiment (control 8.5, 5-FU alone 4.8), 5-FU plus 5.0 μg/kg/day, i.p.) of the same substance?
A: 7.3 ± 0.8 0.1 mm

Q: What about the “Restoration Activity(%)” value [2, 15] of the same substance?
A: 68.7%

Q: What about the DTH response % [2, 15] of the same substance?
A: 86.3%

Q: What about the “DTH response av. ± S.E. (0.1 mm)” value ([2]; Table 4 (control 7.7, 5-FU alone 5.6), 5-FU plus 0.5 μg/kg/day i.p.) of the same substance?
A: 5.4 ± 1.2 0.1 mm

Q: And the “DTH response av. ± S.E. (0.1 mm)” value ([2]; Table 4 (control 7.7, 5-FU alone 5.6), 5-FU plus 5.0 μg/kg/day i.p.)?
A: 7.3 ± 0.8 0.1 mm

Q: And the DTH response % ([2]; Table 4, 5-FU plus 0.5 μg/kg/day i.p.)?
A: 70.1%

Q: And the “Restoration Activity(%)” value [2, 16]?
A: 81.0%

Q: What about the DTH response % [2, 16] of the same substance?
A: 94.8%

Q: What about the “Survivors at Day 15 after infection” value ([3]; 0.4 μg/kg/day) of the same substance?
A: 7/20

Q: What about the “Survivors at Day 15 after infection” value ([3]; 4 μg/kg/day) of the same substance?
A: 12/30

Q: What about the “Survivors at Day 15 after infection” value ([3]; 40 μg/kg/day) of the same substance?
A: 16/30

Q: And the “Growth of Bacteria (log10 /liver)” value ([4]; 4 μg/kg/day)?
A: 5.0 log10 /liver

Q: And the “Growth of Bacteria (log10 /liver)” value ([4]; 40 μg/kg/day)?
A: 5.3 log10 /liver

Q: And the “Mean Survival days (days ± S.D.)” value ([5]; 4 μg/kg/day ip. 14 times)?
A: 17.6 ± 8.2 days

Q: What about the “Mean Survival days (days ± S.D.)” value ([5]; 40 μg/kg/day ip. 14 times) of the same substance?
A: 20.7 ± 2.8 days

Q: And the “survival days (in words)” value ([5]; daily treatment in addition to 5-FU, 8 times before and 6 times after the transplant)?
A: increased the survival days to the level similar to that obtained in normal mice
